Data reported in patent publication US5430150A, “Retroviral protease inhibitors” (American Cyanamid Company, priority 1992, dated 1995).
pIC50: −log10 of the molar value. Like-named read-outs stand apart in the source and are kept apart here.

What was measured:
[1] = target: HIV-1 protease (Human immunodeficiency virus type 1 group M subtype B, UniProt P04585); test: biochemical; type: biochemical
Method: IC50 values for enzyme inhibition are determined using HIV-1 and Amersham's HIV proteinase [^125 I]-scintillation proximity assay (SPA).
Amersham's HIV proteinase [^125 I]-SPA system is a commercial assay incorporating the scintillation proximity assay (SPA) principle available from Amersham International PLC, Bucks, England.
The SPA microspheres provided by Amersham have the substrate linked directly to the surface through a streptavidin-biotin link. The substrate is a 12 residue peptide designed specifically for this application utilizing current knowledge of known cleavage sites for the enzyme and analogue substrate studies. The sequence of the substrate is: [drawing 22]
The peptide is monoiodinated on the tyrosine residue and biotinylated through the epsilon-NH2 group on the lysine. It is linked to the SPA bead via a streptavidin-link. The beads are suspended in a buffer consisting of 5 mM DTT, 1 mM EDTA, 10% w/v glycerol, 0.05% W/v sodium azide, 0.01% v/v Triton X-100 in 25 mM sodium citrate buffer pH 5.5.
The enzyme cleaves at the Phe-Phe bond releasing the ^125 I fragment from the bead. This event causes the removal of detectable signal from the microsphere. […] The rate of reduction in signal is proportional to the activity of the enzyme. The obtained data is used to calculate the IC50 values found in Table 1.

[2] = system: HIV-1 strain IIIB in T lymphoid MT-2 cell lines; test: inhibition of growth of HIV-1 strain IIIB in T lymphoid MT-2 cell lines (metabolic MTT dye); type: cell-based; settings: Human immunodeficiency virus 1, IIIB, MT2, 120 h, 5 days; for inhibition at 0.01 µg/mL: 0.010 μg/ml, read-out: % Inhibition at concentration 0.010 μg/ml; for inhibition at 0.039 µg/mL: 0.039 μg/ml, read-out: % Inhibition at concentration 0.039 μg/ml; for inhibition at 0.156 µg/mL: 0.156 μg/ml, read-out: % Inhibition at concentration 0.156 μg/ml; for inhibition at 0.625 µg/mL: 0.625 μg/ml, read-out: % Inhibition at concentration 0.625 μg/ml; for inhibition at 2.5 µg/mL: 2.5 μg/ml, read-out: % Inhibition at concentration 2.5 μg/ml
Method: In Table 2, data is shown for the ability of these compounds to inhibit growth of HIV-1 strain IIIB in T lymphoid MT-2 cell lines. The cell line is challenged by free virons selected to result in 90-95% cell death (CPE) by day 5. The protease inhibitor compound is then added in the stated concentration. After 5 days, the surviving cells are measured using metabolic MTT dye.

[3] = Activity of Compounds as Enzyme Inhibitor

| pIC50 [1, 3] | pIC50 [1] | SMILES | inhibition at 0.01 µg/mL [2] | inhibition at 0.039 µg/mL [2] | inhibition at 0.156 µg/mL [2] | inhibition at 0.625 µg/mL [2] | inhibition at 2.5 µg/mL [2] |
| --- | --- | --- | --- | --- | --- | --- | --- |
| 6.38 |  | CC[C@H](C)[C@H](NC(=O)[C@H](Cc1ccccc1)CC(O)(CO)CN1C[C@H]2CCCC[C@H]2C[C@H]1C(=O)NC(C)(C)C)C(=O)OC (relative stereo) [Example 30, 3S-[2(2S*),3alpha,4abeta,8abeta]]-N-[5-[3-[[(1,1-Dimethylethyl)amino]carbonyl]octahydro-2(1H)-isoquinolinyl]4-hydroxy-4-(hydroxymethyl)-1-oxo-2-(phenylmethyl)pentyl]-L-isoleucine methyl ester] |  |  |  |  |  |
| 7.14 |  | CC[C@H](C)[C@H](NC(=O)[C@H](Cc1ccccc1)CC(O)CN1C[C@H]2CCCC[C@H]2C[C@H]1C(=O)NC(C)(C)C)C(=O)NCc1nc2ccccc2[nH]1 (single isomer, unassigned) [Example 24A, [3S-[2[alphaS*(1R*,2R*),gammaR*(or S*),3alpha,4abeta,8abeta]]-N-[1-[[(1H-Benzimidazol-2-ylmethyl)amino]carbonyl]-2-methylbutyl]-3-[(1,1-dimethylethyl)amino]carbonyl]decahydro-gamma-hydroxy-alpha-(pentylmethyl)-2-isoquinolinepentanamide] | 10.7% | 63.3% | 100% | 103% | 96% |
| 7.14 |  | CC[C@H](C)[C@H](NC(=O)[C@H](Cc1ccccc1)CC(O)CN1C[C@H]2CCCC[C@H]2C[C@H]1C(=O)NC(C)(C)C)C(=O)NCc1nc2ccccc2[nH]1 (stereo partly drawn) [Example 23, [3S-[2[alphaS*(1R*,2R*),gammaR* (and S*)],3alpha,4abeta,8abeta]]-N-[1-[[(1H-Benzimidazol-2-ylmethyl)amino]carbonyl]-2-methylbutyl]-3-[[(1,1-dimethylethyl)amino]carbonyl]decahydro-gamma-hydroxy-alpha-(phenylmethyl)-2-isoquinolinepentanamide] | 13% | 78.7% | 93.6% | 95.8% | 98.5% |
| 6.13 |  | CC[C@H](C)[C@H](NC(=O)[C@H](Cc1ccccc1)CC(O)(CO)CN1C[C@H]2CCCC[C@H]2C[C@H]1C(=O)NC(C)(C)C)C(=O)NCc1ccccn1 (stereo partly drawn) [Example 26, [3S-[2[gammaR*(and S*),gamma[alphaS*[1R*,1(R*)]]],3alpha,4abeta,8abeta]]-3-[[(1,1-Dimethylethyl)amino]carbonyl]octahydro-gamma-hydroxy-gamma-(hydroxymethyl)-N-[[2-methyl-1-[[(2-pyridinylmethyl)amino]carbonyl]butyl]-alpha-(phenylmethyl)-2(1H)-isoquinolinepentanamide] |  |  |  |  |  |
| 6.81 |  | CC[C@H](C)[C@H](NC(=O)[C@H](Cc1ccccc1)CC(O)CN1C[C@H]2CCCC[C@H]2C[C@H]1C(=O)NC(C)(C)C)C(=O)NCc1ccccn1 (stereo partly drawn) [Example 28, [3S-[2[gammaR*(and S*),gamma[alphaS*[1R,1(R*)]]]],3alpha,4abeta,8abeta]]-3-[[(1,1-Dimethylethyl)amino]carbonyl]octahydro-gamma-hydroxy-N-[2-methyl-1-[[(2-pyridinylmethyl)amino]carbonyl]butyl]-alpha-(phenylmethyl)-2(1H)-isoqinolinepentanamide] |  |  |  |  |  |
| 7.16 |  | CC(C)(C)NC(=O)[C@@H]1C[C@@H]2CCCC[C@@H]2CN1CC(O)(CO)C[C@@H](Cc1ccccc1)C(=O)N[C@H]1CCCC[C@@H]1NC(=O)c1ccc2ccccc2n1 (stereo partly shown) [Example 35] | 0% | 0% | 1.97% | 0% | 0% |
|  | 7.14 | CC(C)(C)NC(=O)[C@@H]1C[C@@H]2CCCC[C@@H]2CN1CC(O)C[C@@H](Cc1ccccc1)C(=O)N[C@H]1CCCC[C@@H]1NC(=O)c1ccc2ccccc2n1 (stereo partly drawn) [Example 37, [3S-[2[2S*(2R*,1R*)],3alpha,4abeta,8abeta]]-N-2-[[5-[3-[[(1,1-dimethylethyl)amino]carbonyl]octahydro-2(1H )-isoquinolinyl]-4-hydroxy-1-oxo-2-(phenylmethyl)pentyl]amino]cyclohexyl]-2-quinolinecarboxamide] | 0.95% | 0% | 0% | 4.37% | 49.1% |
| 7.26 |  | CC(C)(C)NC(=O)[C@@H]1C[C@@H]2CCCC[C@@H]2CN1CC(O)(CO)C[C@@H](Cc1ccccc1)C(=O)N[C@H]1CCCC[C@@H]1NC(=O)c1cc2ccccc2cn1 (stereo partly shown) [Example 40] | 0% | 0% | 1.88% | 0.91% | 13.8% |
| 7.10 |  | CC(C)(C)NC(=O)[C@@H]1C[C@@H]2CCCC[C@@H]2CN1CC(O)C[C@@H](Cc1ccccc1)C(=O)N[C@H]1CCCC[C@@H]1NC(=O)c1cc2ccccc2cn1 (stereo partly drawn) [Example 42, [3S-[2[alphaS*[1R*,1(2R*)]],3alpha,4abeta,8abeta]]-3-[[(1,1-Dimethylethyl)amino]carbonyl)octahydro-gamma-hydroxy-N-[2-[(3-isoquinolinylcarbonyl)amino]cyclohexyl]-alpha-(phenylmethyl)-2-(1H)-isoquinolinepentanamide] | 4.33% | 0% | 4.21% | 12.9% | 86.8% |
|  | 6.89 | CC[C@H](C)[C@H](NC(=O)[C@H](Cc1ccccc1)CC(O)CN1C[C@H]2CCCC[C@H]2C[C@H]1C(=O)NC(C)(C)C)C(=O)N[C@@H](C)c1nc2ccccc2[nH]1 (stereo partly drawn) [Example 51, [3S-[2alphaS*[1R*,1(R*),2R*]],3alpha,4abeta,8abeta]]-N-[1-[[[1H-benzimidazol-2-yl)ethyl]amino]carbonyl]-2-methylbutyl]-3-[[(1,1-dimethylethyl)amino]carbonyl]octahydro-gamma-hydroxy-alpha-phenylmethyl)-2(1H)-isoquinolinepentanamide] | 1.67% | 2.24% | 10.4% | 55.1% | 72.9% |

| SMILES | pIC50 [1, 3] | pIC50 [1] | inhibition at 0.01 µg/mL [2] | inhibition at 0.039 µg/mL [2] | inhibition at 0.156 µg/mL [2] | inhibition at 0.625 µg/mL [2] | inhibition at 2.5 µg/mL [2] |
| --- | --- | --- | --- | --- | --- | --- | --- |
| CC[C@H](C)[C@H](NC(=O)[C@H](Cc1ccccc1)CC(O)(CO)CN1C[C@H]2CCCC[C@H]2C[C@H]1C(=O)NC(C)(C)C)C(=O)NCc1nc2ccccc2[nH]1 (stereo partly drawn) [Example 21, [3S-[2[alphaS*(1R*,2R*),gammaR*(and S*),3alpha,4abeta,8abeta]]-N[1-[[(1H-Benzimidazol-2-ylmethyl)amino]carbonyl]-2-methylbutyl]-3-[[(1,1-dimethylethyl)amino]carbonyl]decahydro-gamma-hydroxy-gamma-(hydroxymethyl)alpha-(phenylmethyl)-2-isoquinolinepentanamide] | 7.16 |  | 0% | 8.1% | 33% | 103% | 102% |
| CC[C@H](C)[C@H](NC(=O)[C@H](Cc1ccccc1)CC(O)CN1C[C@H]2CCCC[C@H]2C[C@H]1C(=O)NC(C)(C)C)C(=O)OC (stereo partly drawn) [Example 32, [3S-[2[2S*,4R*(and S*)],3alpha,4abeta,8abeta]-N-[5-[3-[[(1,1-Dimethylethyl)amino]carbonyl]octahydro-2(1H)-isoquinolinyl]-4-hydroxy-1-oxo-2-(phenylmethyl)pentyl]-L-isoleucinemethyl ester] | 6.06 |  |  |  |  |  |  |
